Experimental data reported in the supplement of paper PMC10627819.

Experiments:
S. aureus DSM 20231 [1] = experiment: Bliss interaction score (quartile over a dose matrix) (fitness difference); higher = more antagonism (negative = synergy)
Procedure, shortened: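 Quartiles summarise the Bliss score over technical, biological and donor/recipient replicates, where the score is observed minus expected fitness under a product model. Expected fitness uses single-drug values inferred from combination data. Fitness is OD595 at entry into stationary phase over the plate's robust no-drug mean, capped at 1.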

S. aureus Newman = experiment: fitness (endpoint OD595 vs no drug) (fraction); higher = more growth
Procedure, shortened: (§1)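 Fitness was measured as bacterial growth in 384-well plates inoculated at OD595 0.01 (30 µl, or 55 µl for S. pneumoniae). Media were TSB, LB Lennox or CY, at 37 °C. OD595 was read every 30 min for 14 h and background-subtracted against the first reading. Fitness is OD595 at the transition into stationary phase divided by the robust mean of no-drug control wells, capped at 1.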

S. aureus DSM 20231 [2] = experiment: as above
Procedure, shortened: as §1

S. pneumoniae D39V = experiment: as above
Procedure, shortened: as §1
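For Bliss interaction score (quartile over a dose matrix) in this document: first quartile when negative (synergy) and third quartile when positive (antagonism).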

CC1(C)S[C@@H]2[C@H](NC(=O)[C@H](N)c3ccc(O)cc3)C(=O)N2[C@H]1C(=O)O [Amoxicillin] + Cc1ccc(-c2cc(C(F)(F)F)nn2-c2ccc(S(N)(=O)=O)cc2)cc1 [Celecoxib]
Conditions	Bliss interaction score
S. aureus DSM 20231 [1]	0.185

CC1(C)S[C@@H]2[C@H](NC(=O)[C@H](N)c3ccc(O)cc3)C(=O)N2[C@H]1C(=O)O [Amoxicillin] + N[C@@H]1CONC1=O [Cycloserine D]
fitness
Conditions	first compound 0.0625 µg/mL	first compound 0.125 µg/mL	first compound 0.25 µg/mL	first compound 0.5 µg/mL
S. aureus DSM 20231 [2], partner 0.375 µg/mL	0.579	0.382	0.0345	0.0039
S. aureus DSM 20231 [2], partner 0.75 µg/mL	0.562	0.368	0.0204	0.0079
S. aureus DSM 20231 [2], partner 1.5 µg/mL	0.554	–	0.0264	0.0072
S. aureus Newman, partner 0.375 µg/mL	0.889	0.875	0.811	–
S. aureus Newman, partner 0.75 µg/mL	0.879	0.91	0.821	–
S. aureus Newman, partner 1.5 µg/mL	0.861	0.851	0.8	–

CC1(C)S[C@@H]2[C@H](NC(=O)[C@H](N)c3ccc(O)cc3)C(=O)N2[C@H]1C(=O)O [Amoxicillin] + O=C(O)[C@H]1/C(=C/CO)O[C@@H]2CC(=O)N21 [Clavulanic acid]
fitness, one replicate
Conditions	partner 0.03125 µg/mL	partner 0.0625 µg/mL	partner 0.125 µg/mL	partner 0.5 µg/mL	partner 1 µg/mL	partner 2 µg/mL
S. aureus Newman, first compound 0.0625 µg/mL	0.895	0.816	0.768	–	–	–
S. aureus Newman, first compound 0.125 µg/mL	0.831	0.809	0.639	–	–	–
S. aureus Newman, first compound 0.25 µg/mL	0.717	0.628	0.606	–	–	–
S. pneumoniae D39V, first compound 0.006 µg/mL	–	–	–	0.391	0.315	0.242

fitness, S. pneumoniae D39V
Conditions	first compound 0.0008 µg/mL	first compound 0.0015 µg/mL	first compound 0.003 µg/mL
partner 0.5 µg/mL	0.913	0.945	0.914
partner 1 µg/mL	0.886	0.87	0.852
partner 2 µg/mL	0.812	0.819	0.713

CC1(C)S[C@@H]2[C@H](NC(=O)[C@H](N)c3ccc(O)cc3)C(=O)N2[C@H]1C(=O)O [Amoxicillin] + O=C(O)c1cc(-c2ccc(F)cc2F)ccc1O [Diflunisal]
Conditions	Bliss interaction score
S. aureus DSM 20231 [1]	0.204

CO/N=C(\C(=O)N[C@@H]1C(=O)N2C(C(=O)[O-])=C(C[N+]3(C)CCCC3)CS[C@H]12)c1csc(N)n1 [Cefepime] + CC1(C)S[C@@H]2[C@H](NC(=O)Cc3ccccc3)C(=O)N2[C@H]1C(=O)O [Penicillin G]
fitness, S. aureus Newman
Conditions	first compound 0.125 µg/mL	first compound 0.25 µg/mL	first compound 0.5 µg/mL
partner 0.0195 µg/mL	0.868	0.801	0.712
partner 0.039 µg/mL	0.895	0.811	0.695
partner 0.078 µg/mL	0.871	0.773	0.704

CO/N=C(\C(=O)N[C@@H]1C(=O)N2C(C(=O)[O-])=C(C[N+]3(C)CCCC3)CS[C@H]12)c1csc(N)n1 [Cefepime] + CO[C@@]12[C@H](COC(N)=O)C3=C(C(=O)C(C)=C(N)C3=O)N1C[C@@H]1N[C@@H]12 [Mitomycin C]
Conditions	fitness
S. aureus DSM 20231 [2], first compound 0.125 µg/mL, partner 0.0156 µg/mL	0.685
S. aureus DSM 20231 [2], first compound 0.125 µg/mL, partner 0.0312 µg/mL	0.653
S. aureus DSM 20231 [2], first compound 0.125 µg/mL, partner 0.0625 µg/mL	0.568
S. aureus DSM 20231 [2], first compound 0.25 µg/mL, partner 0.0156 µg/mL	0.63
S. aureus DSM 20231 [2], first compound 0.25 µg/mL, partner 0.0312 µg/mL	0.617
S. aureus DSM 20231 [2], first compound 0.25 µg/mL, partner 0.0625 µg/mL	0.578
S. aureus DSM 20231 [2], first compound 0.5 µg/mL, partner 0.0156 µg/mL	0.632
S. aureus DSM 20231 [2], first compound 0.5 µg/mL, partner 0.0312 µg/mL	0.572
S. aureus DSM 20231 [2], first compound 0.5 µg/mL, partner 0.0625 µg/mL	0.549
S. aureus Newman, first compound 0.125 µg/mL, partner 0.0156 µg/mL	0.749
S. aureus Newman, first compound 0.125 µg/mL, partner 0.0312 µg/mL	0.661
S. aureus Newman, first compound 0.125 µg/mL, partner 0.0625 µg/mL	0.556
S. aureus Newman, first compound 0.25 µg/mL, partner 0.0156 µg/mL	0.661
S. aureus Newman, first compound 0.25 µg/mL, partner 0.0312 µg/mL	0.592
S. aureus Newman, first compound 0.25 µg/mL, partner 0.0625 µg/mL	0.483
S. aureus Newman, first compound 0.5 µg/mL, partner 0.0156 µg/mL	0.621
S. aureus Newman, first compound 0.5 µg/mL, partner 0.0312 µg/mL	0.578
S. aureus Newman, first compound 0.5 µg/mL, partner 0.0625 µg/mL	0.522
S. pneumoniae D39V, first compound 0.007 µg/mL, partner 0.002 µg/mL	0.88
S. pneumoniae D39V, first compound 0.007 µg/mL, partner 0.004 µg/mL	0.803
S. pneumoniae D39V, first compound 0.007 µg/mL, partner 0.008 µg/mL	0.68
S. pneumoniae D39V, first compound 0.0078 µg/mL, partner 0.001075 µg/mL	0.976
S. pneumoniae D39V, first compound 0.0078 µg/mL, partner 0.00215 µg/mL	0.924
S. pneumoniae D39V, first compound 0.0078 µg/mL, partner 0.0043 µg/mL	0.867
S. pneumoniae D39V, first compound 0.014 µg/mL, partner 0.002 µg/mL	0.859
S. pneumoniae D39V, first compound 0.014 µg/mL, partner 0.004 µg/mL	0.819
S. pneumoniae D39V, first compound 0.014 µg/mL, partner 0.008 µg/mL	0.669
S. pneumoniae D39V, first compound 0.0155 µg/mL, partner 0.001075 µg/mL	0.98
S. pneumoniae D39V, first compound 0.0155 µg/mL, partner 0.00215 µg/mL	0.931
S. pneumoniae D39V, first compound 0.0155 µg/mL, partner 0.0043 µg/mL	0.857
S. pneumoniae D39V, first compound 0.028 µg/mL, partner 0.002 µg/mL	0.716
S. pneumoniae D39V, first compound 0.028 µg/mL, partner 0.004 µg/mL	0.7
S. pneumoniae D39V, first compound 0.028 µg/mL, partner 0.008 µg/mL	0.628
S. pneumoniae D39V, first compound 0.031 µg/mL, partner 0.001075 µg/mL	0.708
S. pneumoniae D39V, first compound 0.031 µg/mL, partner 0.00215 µg/mL	0.647
S. pneumoniae D39V, first compound 0.031 µg/mL, partner 0.0043 µg/mL	0.63

CCCCCCCCCC(=O)N[C@@H](Cc1c[nH]c2ccccc12)C(=O)N[C@H](CC(N)=O)C(=O)N[C@@H](CC(=O)O)C(=O)N[C@@H]1C(=O)NCC(=O)N[C@@H](CCCN)C(=O)N[C@@H](CC(=O)O)C(=O)N[C@H](C)C(=O)N[C@@H](CC(=O)O)C(=O)NCC(=O)N[C@H](CO)C(=O)N[C@@H]([C@H](C)CC(=O)O)C(=O)N[C@@H](CC(=O)c2ccccc2N)C(=O)O[C@@H]1C [Daptomycin] + CC1(C)S[C@@H]2[C@H](NC(=O)Cc3ccccc3)C(=O)N2[C@H]1C(=O)O [Penicillin G]
fitness, S. aureus Newman
Conditions	first compound 0.125 µg/mL	first compound 0.25 µg/mL	first compound 0.5 µg/mL
partner 0.0195 µg/mL	0.926	0.958	0.925
partner 0.039 µg/mL	0.939	0.942	0.972
partner 0.078 µg/mL	0.961	0.957	0.915
